Data set [1] addresses T1, S. aureus SrtA (Staphylococcus aureus, UniProt Q2FV99).
T1 construct: His tag (inferred from IMAC on a HisTrap column); made in house; host or cells: E. coli BL21 Gold (DE3)
The data set is described as follows: fluorometric enzyme assay of SrtA transpeptidation (Abz-LPETG-Dap(Dnp)-OH substrate). In kind it is biochemical. Conditions: for k inact: maximum inactivation rate; for k inact / KI (inactivation) / k 2nd: Tris pH 7.50, n. i. = <20% inhibition at 100 µM; for KI (inactivation): read-out: KI, dissociation constant of the reversible enzyme-inhibitor complex; for k 2nd: second-order rate of inhibition. On the procedure:
To evaluate the inhibition potency of the parent sulfonylpyrimidine 4, this compound was tested by means of a fluorometric enzyme assay with recombinantly expressed S. aureus SrtA ([Schmohl et al., 2017b]) and Abz-LPETG-Dap (Dnp)-OH as substrate. […] To verify the irreversible mode of inhibition, we determined the maximum inactivation rate k inact, the dissociation constant of the reversible enzyme-inhibitor complex KI, and the second-order rate of inhibition k 2nd. For compound 4, a k inact = 0.00065 s^−1 was found, which is very low compared to other covalent SrtA inhibitors ([Chan et al., 2017]; [Barthels et al., 2020]; [Jaudzems et al., 2020]).
Inhibition assays of S. aureus SrtA transpeptidation reactions were performed as described previously ([Barthels et al., 2020]). Briefly, the recombinantly expressed SrtA (final concentration: 1 µM) was incubated in assay buffer (50 mM Tris, 150 mM NaCl, 5 mM CaCl2, pH 7.50) with 25 µM of the FRET-pair substrate Abz-LPETG-Dap (Dnp)-OH (Genscript, Piscataway, New Jersey) and 0.5 mM tetraglycine (Sigma Aldrich, St. Louis, Missouri). Inhibitors were added from DMSO stocks. Reactions were initiated by addition of SrtA and monitored for 30 min at 30°C in an Infinite M200 Pro plate reader with λex 320 nm/λem 430 nm (Tecan, Männedorf, Switzerland). Three technical replicates were carried out for each inhibitor in black flat-bottom 96-well plates (Greiner bio-one, Kremsmünster, Austria). The enzyme kinetics of irreversible SrtA inactivation were analyzed as described previously ([Barthels et al., 2020]).

The next data set has as its system SrtA. Also noted: method as in Jaudzems et al., 2020. As to conditions: after 16 h of incubation with 100 µM inhibitor; ref Jaudzems et al., 2020; cited from earlier work.
For data set [2], the target named is T2, NS2B-NS3 from Zika virus (ZIKV) (Zika virus, UniProt Q32ZE1).
T2 construct: The ZIKV NS2B/NS3 protease is a serine protease and contains two non-catalytic cysteine residues
T2 sequence (Q32ZE1 1499-1676): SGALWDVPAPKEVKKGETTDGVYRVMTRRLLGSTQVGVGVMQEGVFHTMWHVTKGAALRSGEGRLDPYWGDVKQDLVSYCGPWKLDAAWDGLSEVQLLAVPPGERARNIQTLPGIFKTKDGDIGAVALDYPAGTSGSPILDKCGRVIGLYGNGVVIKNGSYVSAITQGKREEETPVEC
T2 sequence (Q32ZE1 1421-1460): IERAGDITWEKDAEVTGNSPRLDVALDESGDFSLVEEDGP
Briefly: protease selectivity panel, fluorometric assay ZIKV NS2B/NS3 protease. In kind it is biochemical. Conditions: 100 µM inhibitor; read-out: ZIKV inhibition relative to the DMSO control. On the procedure: (§1) To investigate how these sulfonylpyrimidines affect the activity of other cysteine and serine proteases, a selectivity panel was constructed from a matrix of 6 diverse sulfonylpyrimidines and 6 different proteases. The compounds were assayed at a final compound concentration of 100 µM for the cysteine proteases human cathepsin B (hCatB), cathepsin L (hCatL), and T. brucei rhodesain (Rd). Furthermore, the serine proteases NS2B-NS3 from Zika virus (ZIKV), the homologous protease from Dengue virus (DENV), and the human protease urokinase plasminogen activator (uPA) were tested for their susceptibility.
(§2) Fluorometric assays of the ZIKV/DENV NS2B/NS3 protease were performed as described previously ([Maus et al., 2021]). The assay was carried out in triplicates at 25°C in assay buffer (50 mM Tris, pH 9.0, 20% glycerol (v/v), and 1 mM CHAPS). 100 µM Boc-Gly-Arg-Arg-AMC (Bachem, Bubendorf, Switzerland) was used as a substrate. Fluorometric assays for cathepsin B, cathepsin L, and rhodesain (Calbiochem, Merck Millipore, Burlington, Massachusetts) were performed as described previously ([Klein et al., 2020a]). Cbz-Phe-Arg-AMC (Bachem, Bubendorf, Switzerland) was used as substrate (100 μM for cathepsin B, 6.5 μM for cathepsin L, and 10 µM for rhodesain). Fluorometric assays for urokinase plasminogen activator were performed as described previously ([Angelini et al., 2012]). 240 µM Cbz-Gly-Arg-Arg-AMC (Bachem, Bubendorf, Switzerland) was used as a substrate.

Data set [3] addresses T3, human cathepsin B (hCatB) (Homo sapiens, UniProt P07858).
T3 construct: purchased Calbiochem, Merck Millipore
The data set is described as follows: protease selectivity panel, fluorometric assay cathepsin B. In kind it is biochemical. As to conditions: 100 µM inhibitor; read-out: CatB inhibition relative to the DMSO control. On the procedure:
as §1, §2

The target of another data set is T4, cathepsin L (hCatL) (Homo sapiens, UniProt P07711).
T4 construct: purchased Calbiochem, Merck Millipore
T4 sequence (P07711 114-333): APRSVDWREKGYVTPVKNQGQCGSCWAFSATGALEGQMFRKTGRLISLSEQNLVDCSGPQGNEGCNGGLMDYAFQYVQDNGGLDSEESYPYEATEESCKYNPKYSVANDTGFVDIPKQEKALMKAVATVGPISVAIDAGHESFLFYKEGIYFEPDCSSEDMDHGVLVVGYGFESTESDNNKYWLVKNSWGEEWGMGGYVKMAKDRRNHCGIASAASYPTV
Briefly: protease selectivity panel, fluorometric assay cathepsin L. Conditions: 100 µM inhibitor; read-out: CatL inhibition relative to the DMSO control. The format is biochemical. On the procedure: as §1, §2

A short description of data set [4]: cysteine reactivity assay (competitive fluorescence assay with probe 8). The format is physicochemical. From the text:
In order to study the kinetics of sulfonylpyrimidines reacting with free cysteine in solution, a strategy for a competitive fluorescence-based assay was adapted from previous works ([Epps and Taylor, 2001]; [Sameshima et al., 2017]). […] The reaction of probe 8 with cysteine liberates 4-methylumbelliferone as a fluorometrically detectable product (Figure 7A), and thus, the fluorescence increase can be described by the second-order rate constant k probe (Equation 1).
Upon the addition of competitive and irreversible cysteine modifiers such as sulfonylpyrimidines, the fluorescence increase of the probe reaction was hyperbolically attenuated (Figure 7B). According to the conceptual deduction described previously ([Epps and Taylor, 2001]; [Sameshima et al., 2017]), the experimental fluorescence curves can be analyzed by nonlinear regression as first-order reaction progress curves (Equation 2). The parameter k obs describes the curvature corresponding to the sum of the competing kinetics (Equation 3). Under the assumptions that 1) the competitive reaction between sulfonylpyrimidines vs. probe with cysteine is started by simultaneous addition, and 2) sulfonylpyrimidines are added at a much higher concentration than cysteine (5 µM) and the probe (5 µM), the k obs values depend substantially on the k chem value. The compound-specific second-order inactivation parameter k chem can be determined by linear regression from the k obs values of the dilution series (Equation 4). d[FL]/dt=kprobe[Cys][probe] (1) FL=[Cys]total⋅kprobe [probe]/kprobe [probe] + kchem [sulfonylpyrimidine](1−e^−kobs⋅t) (2) kobs=kchem [sulfonylpyrimidine]+kprobe [probe] (3) kchem=kobs/[sulfonylpyrimidine] (4)
Kinetic characterization of the reaction between sulfonylpyrimidines and cysteine was performed in degassed phosphate buffer (1×PBS, pH 7.5) or individual cases in bicarbonate buffer (20 mM NaHCO3, 100 mM NaCl, pH 7.5). Three technical replicates were carried out for each sulfonylpyrimidine in black flat-bottom 96-well plates. For this purpose, 50 µL buffered solution (including 5% (v/v) DMSO) of the respective sulfonylpyrimidine derivative (final: 250–3 µM) and the cysteine reactive probe 8 (final: 5 µM) were premixed. Reactions were initiated by the addition of 50 µL cysteine (final: 5 µM), dissolved in the respective buffer, and monitored for 30 min at 30°C in an Infinite M200 Pro plate reader with λex 380 nm/λem 460 nm. To calculate k obs and k chem values, fluorescence curves were fitted using the same non-linear regression as for in vitro inhibition of SrtA ([Barthels et al., 2020]).

The target of another data set is T5, T. brucei rhodesain (Rd) (Trypanosoma brucei rhodesiense, UniProt Q95PM0).
T5 construct: purchased Calbiochem, Merck Millipore
T5 sequence (Q95PM0 entry or part of it): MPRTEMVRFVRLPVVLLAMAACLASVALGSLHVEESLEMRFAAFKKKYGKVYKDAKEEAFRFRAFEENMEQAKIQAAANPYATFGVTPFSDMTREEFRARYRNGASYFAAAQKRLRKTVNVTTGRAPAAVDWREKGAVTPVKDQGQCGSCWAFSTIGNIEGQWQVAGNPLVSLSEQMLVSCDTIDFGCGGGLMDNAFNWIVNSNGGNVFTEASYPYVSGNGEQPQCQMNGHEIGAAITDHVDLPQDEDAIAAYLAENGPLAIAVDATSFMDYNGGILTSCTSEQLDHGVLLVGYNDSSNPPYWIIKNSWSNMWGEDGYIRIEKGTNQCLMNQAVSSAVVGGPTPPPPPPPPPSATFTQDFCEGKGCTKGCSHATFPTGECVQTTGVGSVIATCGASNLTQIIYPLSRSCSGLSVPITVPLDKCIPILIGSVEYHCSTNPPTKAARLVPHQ
Briefly: protease selectivity panel, fluorometric assay rhodesain. In kind it is biochemical. Conditions: 100 µM inhibitor; n. i. = no inhibition at 100 µM; read-out: Rd inhibition relative to the DMSO control. On the procedure: as §1, §2

On the set-up of data set [5]: method as in Bauer et al. Conditions: ref Bauer et al.; cited from earlier work.
In data set [6] the target is T1, S. aureus SrtA. The data set is described as follows: MALDI-TOF-MS of SrtA treated with inhibitor. As to conditions: SrtA 10 µM, inhibitor 100 µM, 1 h room temperature. On the procedure:
By using MALDI-TOF mass spectrometry, we aimed to determine the mode of inhibitory action in an enzymatic context. For the native SrtA, we found a protein mass at m/z = 17,806.
An S. aureus SrtA stock solution was diluted in 100 μL assay buffer (50 mM Tris, 150 mM NaCl, 5 mM CaCl2, pH 7.50) to a final concentration of 10 µM. Compound 7a was dissolved in DMSO and added to SrtA at a final concentration of 100 μM. The protein samples were allowed to react for 1 h at room temperature and subsequently, these were desalted using Zeba^TM Spin desalting columns (7 kDa MWCO, 0.5 ml; Thermo Scientific) according to the manufacturer’s instructions. For MALDI sample preparation, the desalted solution was mixed 1:1 with a matrix combination of equal amounts α-cyano-4-hydroxycinnamic acid (20 mg/ml dissolved in 70% acetonitrile and 30% of formic acid in water at a concentration of 5%) and 2,5-dihydroxybenzoic acid (20 mg/ml dissolved in 70% acetonitrile and 30% of trifluoroacetic acid in water at a concentration of 0.1%). The resulting mixture was allowed to dry slowly on the MALDI target prior to introduction into the mass spectrometer. […] The acceleration voltage was set to 20 kV and the mass spectra were recorded in positive ion linear mode. […] Samples were measured at a laser power of 60% with random walk ionization across the sample spot.

Data set [7] can be described thus: in-solution reaction with free cysteine (ESI-MS / LC/MS). Conditions: compound 100 µM, cysteine 100 µM, phosphate buffered solution pH 7.5. In kind it is physicochemical.
Description: Thus, we determined the point of nucleophilic thiol attack by means of ESI mass spectrometry between the reaction of compound 7a and cysteine in phosphate buffered solution at pH 7.5.
Furthermore, the influence of different solvents on the reaction of sulfonylpyrimidines with thiols in solution was investigated.
To a solution of 100 µM cysteine in phosphate-buffered saline (1×, pH 7.5), compound 5a or 7a (100 μM, 5% DMSO) was added and incubated for 10 min at room temperature. The negative labeling control was performed by mock treatment with DMSO. Samples were analyzed by LC/MS using an Agilent 1100 series HPLC system with an Agilent Poroshell 120 EC-C18 column (150 × 2.10 mm 4 μm; mobile phase: ACN/H2O 45:55 + 0.1% formic acid; flow rate: 0.4 ml/min) and electron spray ionization with the Agilent 1100 series LC/MSD Trap in positive ionization mode.
[8] abbreviates: phosphate buffer (1×PBS) pH 7.5.

We go through three compounds from article PMC8763382, “2-Sulfonylpyrimidines as Privileged Warheads for the Development of S. aureus Sortase A Inhibitors” (Frontiers in Molecular Biosciences, 2022).

Values joined by “and” are separate entries in the source; they are usually repeats but may differ in a detail not shown here. Equal entries are not always repeated.

T1 sequence (Q2FV99 60-206): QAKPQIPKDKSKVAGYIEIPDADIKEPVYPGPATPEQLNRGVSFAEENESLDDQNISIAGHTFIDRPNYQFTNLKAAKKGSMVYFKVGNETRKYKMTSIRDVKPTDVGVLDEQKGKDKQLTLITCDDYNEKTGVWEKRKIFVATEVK

On to `CS(=O)(=O)c1ncc(Cl)c(C(=O)Nc2ccccc2Cc2ccccc2)n1` [Compound 4], for which, at S. aureus SrtA [1], the k inact is 0.00065 s⁻¹ and 0.0006 s⁻¹ and 0.00065 ± 0.00007 s⁻¹; the KI (inactivation) was determined as 47.1 ± 15.7 µM; the “k 2nd” value was 870 M⁻¹ min⁻¹ and 870 ± 170 M⁻¹ min⁻¹. Further, the SrtA inhibition in the data set with SrtA is 97%.
Consider `CS(=O)(=O)c1ncc(Cl)c(C(=O)O)n1` [Compound 5c], for which the “SrtA inhibition (in words)” value on S. aureus SrtA [1] (final inhibitor concentration of 300 µM) is listed as “no SrtA inhibition”. The inhibition (in general, the share of the control response that was lost under treatment) at 100 µM on S. aureus SrtA [1] (read-out: SrtA inhibition relative to the DMSO control) came to 19.6%; in data set [2], 7.7%; in [3], 5.8%; on cathepsin L (hCatL), 6.6%; at T. brucei rhodesain (Rd) it was 20%. Also, the Cysteine k chem in data set [4] (bicarbonate buffered solution pH 7.5) is 0.365 ± 0.0212 M⁻¹ s⁻¹; in data set [4] (setting [8]) it was 1.05 M⁻¹ s⁻¹ and 1.05 ± 0.0335 M⁻¹ s⁻¹. Further, the “k chem vs. glutathione” value in [5] was 82 M^−1min-^1.
For `CS(=O)(=O)c1ncc(Br)c(C(=O)Nc2cccc(C(=O)c3ccccc3)c2)n1` [Compound 7a], on S. aureus SrtA [1] (SrtA k 2nd over cysteine k chem), the “S. I. (k 2nd/k chem)” value stood at 268. Also, at S. aureus SrtA [1], the k inact was determined as 0.01493 ± 0.00132 s⁻¹, the KI (inactivation) came to 32 ± 5.07 µM and the “k 2nd” value is reported as 28,185 ± 2,117 M^−1min^−1. The “covalent modification of SrtA (in words)” value at S. aureus SrtA [6] is recorded as “quantitative conversion”. Further, the Cysteine k chem in data set [4] (setting [8]) is 1.748 ± 0.375 M⁻¹ s⁻¹. For the same compound, in [7], the “time to quantitative reaction with cysteine” value is reported as “less than 10 min”.
